Data taken from patent US20090088380A1, “GHRH ANALOGS AND THERAPEUTIC USES THEREOF” (priority 2007, published 2009).
Several values for one entry are separate records, joined by “and”; a condition that tells them apart may be missing. Equal values may be shown once. Non-standard residues stand in square brackets, D forms with d. Residues, ends and D or L forms follow the SMILES beside them.

Experiments:
[1] = system: malnourished subjects with CKD; assay: Phase II CKD: 24-hour urine collection, creatinine and urea clearance, GFR, PNA; type: in vivo, human; details: for Creatinine (24-hour urine): mean (SD) / Creatinine clearance: median / GFR: median / Urea (24-hour urine): mean (SD) / Urea clearance: mean (SD) / nPNA: mean (SD): ITT population
Description: Subjects collected 24-hour urine samples at screening, baseline (Days 0 to 1) and Days 28 to 29. All of the samples were analysed for creatinine and urea clearance (mL/min). The samples collected at baseline and on Day 28 were also analysed for proteinuria (Coumassie method), PNA, sodium, potassium, chloride, calcium and phosphate. GFR was calculated using the Cockcroft-Gault formula: […]

[2] = system: malnourished subjects with CKD; assay: Phase II CKD: abnormal and clinically significant haematology values; type: in vivo, human; details: for Subjects with abnormal and clinically significant Basophils (%) / Subjects with abnormal and clinically significant Eosinophils (%) / Subjects with abnormal and clinically significant Haematocrit (%) / Subjects with abnormal and clinically significant Haemoglobin (%) / Subjects with abnormal and clinically significant Lymphocytes (%) / Subjects with abnormal and clinically significant MCV (%) / Subjects with abnormal and clinically significant Monocytes (%) / Subjects with abnormal and clinically significant Neutrophils (%) / Subjects with abnormal and clinically significant Platelet count (%) / Subjects with abnormal and clinically significant RBC (%) / Subjects with abnormal and clinically significant WBC (%): safety analysis set
From the text: The number of subjects with abnormal and clinically significant laboratory values at baseline and at Day 28 is presented in Table 35 (haematology) and Table 36 clinical chemistry. Overall, the number of subjects with abnormal and clinically significant laboratory values was similar in the GHRH(1-29)NH2 synthetic analog and placebo groups. No clear trends were observed.

[3] = system: antibodies to the GHRH(1-29)NH2 synthetic analog; assay: Phase I/II study: human anti-GHRH antibodies ELISA; type: in vivo; details: Day 30 sample, at the dilution tested
Description: On Day 30, an ambulatory control visit took place. Clinical assessments were performed and adverse events were reported. A blood sample was taken to determine the presence of antibodies the GHRH(1-29)NH2 synthetic analog.
Once the volunteers were considered eligible, they were hospitalized for a period of 5 consecutive days. On Day 0 of admission successive samples of blood were taken to perform the basal secretion profile of GH during 24 hours. During 5-day hospitalization period, after the initial blood sampling to determine fasting glucose level, the appropriate dose of the GHRH(1-29)NH2 synthetic analog or placebo was administered and multiple samplings were performed to assess the profile of GH, postprandial glucose level and electrocardiogram after 60 minutes of the application of the GHRH(1-29)NH2 synthetic analog/placebo. Eight hours after drug administration, samples were obtained to determine IGF-1 level, thyroid hormones and routine analysis. After 30 days of admission, all the volunteers returned for new clinical evaluation to record any adverse events that could have occurred from the last day of hospitalization period and to take a blood sample for later determination of anti-GHRH(1-29)NH2 synthetic analog antibodies.
Human anti-GHRH antibodies were measured in ELISA developed LAB Pre-Clinical Research Intl.

[4] = system: Salmonella strains, Chinese Hamster Ovary cells, erythrocyte micronucleus test; assay: Mutagenicity tests
Sprague-Dawley rats = details: rat, in vivo
Description: In order to assess such use of the GHRH analogs, the following experiments were undertaken. More specially, the goal was to assess the pharmacodynamic and pharmacokinetic profiles and acute toxicity of GHRH analog #5 when administered once by subcutaneous or intravenous injection to female Sprague-Dawley rats followed by a 14-day observation period and the pharmacodynamic profile in a male Beagle dog when the GHRH analog was administered at escalating doses to the same dog by subcutaneous injection with at least 2-day washout period. The above GHRH analog is a variation of a synthetic acetate salt of an amidated synthetic 29-amino acid peptide that corresponds to the amino-terminal segment of the naturally-occurring human growth hormone—releasing hormone (GHRH) with four amino acid substitutions in positions 2, 10, 15, and 22.
Human GHRH analog #5 in 0.9% sodium chloride for injection USP was administered once either by intravenous (IV) or subcutaneous (SC) injection to female rats followed by a 14-day observation period, as shown in Table 2. Prior to administration, all dosing formulations were filtered using a 0.22 μm filter to ensure sterility. The actual amount of GHRH analog #5 administered was calculated and adjusted based on the animal's most recent body weight. Dosing started at approximately the same time each day, commencing at 9:00 am ±30 minutes.

[5] = GHRH vs placebo, Day 28, ANOVA for repeated measures

## CC[C@H](C)[C@H](NC(=O)[C@H](C)NC(=O)[C@H](CC(=O)O)NC(=O)[C@@H](C)NC(=O)[C@@H](N)Cc1ccc(O)cc1)C(=O)N[C@@H](Cc1ccccc1)C(=O)N[C@H](C(=O)N[C@@H](CC(N)=O)C(=O)N[C@@H](CO)C(=O)N[C@H](Cc1ccc(O)cc1)C(=O)N[C@@H](CCCNC(=N)N)C(=O)N[C@@H](CCCCN)C(=O)N[C@H](C(=O)N[C@@H](CC(C)C)C(=O)N[C@H](C)C(=O)N[C@@H](CCC(N)=O)C(=O)N[C@@H](CC(C)C)C(=O)N[C@@H](CO)C(=O)N[C@@H](C)C(=O)N[C@@H](CCCNC(=N)N)C(=O)N[C@@H](CCCCN)C(=O)N[C@@H](CCCCN)C(=O)N[C@@H](CC(C)C)C(=O)N[C@@H](CCC(N)=O)C(=O)N[C@@H](CC(=O)O)C(=O)N[C@H](C(=O)N[C@@H](CCSC)C(=O)N[C@@H](CO)C(=O)N[C@@H](CCCNC(=N)N)C(N)=O)[C@@H](C)CC)C(C)C)[C@@H](C)O [GHRH analog #5, [D-Ala^2, D-Tyr^10, D-Ala^15, Lys^22] hGHRH(1-29)-NH2] (H-Y[dA]DAIFTNS[dY]RKVL[dA]QLSARKKLQDIMSR-NH2)
[1]; Baseline
  Creatinine (24-hour urine): mean (SD): 10.44 (5.10) mmol/24 hours
  Creatinine clearance: median: 24.92 mL/min/1.73 m^−2
  GFR: median: 19.37 ml/min/1.73 m^−2
  Urea (24-hour urine): mean (SD): 343.53 (170.39) mmol/24 hours
  Urea clearance: mean (SD): 11.858 (5.820) mL/min/1.73 m^−2
  nPNA: mean (SD): 2.3648 (1.1530) g/kg body weight/24 h
[1]; Day 28
  Mean urea clearance rate: 11.24 mL/min/1.73 m^−2
  Median GFR: 18.23 mL/min/1.73 m^−2
  Median creatinine clearance: 23.78 mL/min/1.73 m^−2
  Creatinine (24-hour urine): mean (SD): 9.68 (3.29) mmol/24 hours
  Creatinine clearance: median: 23.78 mL/min/1.73 m^−2
  GFR: median: 18.23 ml/min/1.73 m^−2
  Urea (24-hour urine): mean (SD): 235.87 (88.51) mmol/24 hours
  Urea clearance: mean (SD): 11.244 (4.200) mL/min/1.73 m^−2
  nPNA: mean (SD): 1.6198 (0.5892) g/kg body weight/24 h
[1]; [5]
  Urea clearance: adjusted difference or comparison: 2.28 mL/min/1.73 m^−2
  nPNA: adjusted difference or comparison: −0.553 g/kg body weight/24 h
[1]; after decrease (day 28)
  nPNA: mean value: 1.6198 g/kg body weight/24 h
[1]; baseline
  Mean urea clearance rate: 11.86 mL/min/1.73 m^−2
  Median GFR: 19.37 mL/min/1.73 m^−2
  Median creatinine clearance: 24.92 mL/min/1.73 m^−2
[1]; before decrease (baseline)
  nPNA: mean value: 2.3648 g/kg body weight/24 h
[1]; day 28
  Urea clearance: adjusted mean difference between GHRH and placebo arm: 2.28 ml/min/1.73 m^2
  nPNA: adjusted mean difference between GHRH and placebo arm: −0.553 g/kg body weight/24 h
[1]; one patient
  GFR: improvement against baseline, one patient: 78.56%
[1]; two patients
  Creatinine clearance: improvement against baseline, individual patients: 124.63% and 115.65%
[1]; two patients, listed as GHRH(1-29)NH2 synthetic analog
  Urea clearance: improvement against baseline, individual patients: 123.99% and 103.49%
[2]; Baseline
  Subjects with abnormal and clinically significant Basophils (%): (0.0%)
  Subjects with abnormal and clinically significant Eosinophils (%): (0.0%)
  Subjects with abnormal and clinically significant Haematocrit (%): (7.7%)
  Subjects with abnormal and clinically significant Haemoglobin (%): (23.1%)
  Subjects with abnormal and clinically significant Lymphocytes (%): (0.0%)
  Subjects with abnormal and clinically significant MCV (%): (0.0%)
  Subjects with abnormal and clinically significant Monocytes (%): (7.7%)
  Subjects with abnormal and clinically significant Neutrophils (%): (7.7%)
  Subjects with abnormal and clinically significant Platelet count (%): (0.0%)
  Subjects with abnormal and clinically significant RBC (%): (7.7%)
  Subjects with abnormal and clinically significant WBC (%): (0.0%)
[2]; Day 28
  Number of subjects with abnormal and clinically significant haematocrit: 4 subjects
  Subjects with abnormal and clinically significant Basophils (%): (0.0%)
  Subjects with abnormal and clinically significant Eosinophils (%): (0.0%)
  Subjects with abnormal and clinically significant Haematocrit (%): (33.3%)
  Subjects with abnormal and clinically significant Haemoglobin (%): (41.7%)
  Subjects with abnormal and clinically significant Lymphocytes (%): (0.0%)
  Subjects with abnormal and clinically significant MCV (%): (0.0%)
  Subjects with abnormal and clinically significant Monocytes (%): (8.3%)
  Subjects with abnormal and clinically significant Neutrophils (%): (16.7%)
  Subjects with abnormal and clinically significant Platelet count (%): (0.0%)
  Subjects with abnormal and clinically significant RBC (%): (25.0%)
  Subjects with abnormal and clinically significant WBC (%): (0.0%)
[2]; baseline
  Number of subjects with abnormal and clinically significant haematocrit: 1 subject
[3]
  Detectable antibodies to the GHRH(1-29)NH2 synthetic analog: None of the subject samples tested had detectable antibodies
[4]
  Clastogenicity: not a clastogenic agent
[4]; Salmonella strains, CHO cells, erythrocyte micronucleus test
  Mutagenicity: no evidence of mutagenicity
Sprague-Dawley rats
  Treatment-related clinical signs: No treatment-related clinical signs were observed
